How the values were obtained:
[1] = Partition coefficient (logP); assay type: physicochemical; details: octanol/water
Rattus norvegicus = test: Hypotensive activity measured as the 20% decrease in mean arterial blood pressure in anesthetized normotensive rat; assay type: functional
Felis catus = test: Hypotensive activity measured as the 20% decrease in mean arterial blood pressure in anesthetized cat; assay type: functional

Compound | logP [1] | pC20 (Rattus norvegicus) | pC20 (Felis catus)
Clc1cccc(Cl)c1NC1=NCCN1 [CLONIDINE] | 0.91 | 7.96 | 8.72
Cc1ccc(Cl)c(Cl)c1NC1=NCCN1 | 1.06 | 7.79 | 7.92
Clc1ccc(Cl)c(NC2=NCCN2)c1Cl | 1.71 | 8.39 | 9.17
